Measured values published in the NIST ThermoML archive (doi:10.1021/je0340755).
± gives the expanded uncertainty stated by the source.

Assay: xn = mol fraction of the nth substance listed
Details: 101.3 kPa, Liquid; for viscosity: Capillary tube (Ostwald / Ubbelohde) method

CC(O)CO (configuration not stated) [1,2-propanediol] + O
Details | mass density, 298.15 K [kg/m3] | speed of sound, 298.15 K [m/s] | viscosity, 298.15 K [mPa·s] | viscosity, 308.15 K [mPa·s]
x2 = 0.044 | 1033.39 ± 0.43 | 1511.4 ± 6.3 | 41.25 ± 0.2 | 23.03 ± 0.12
x2 = 0.0987 | 1034.15 ± 0.43 | 1518.3 ± 6.3 | 38.41 ± 0.18 | 21.43 ± 0.12
x2 = 0.1484 | 1034.84 ± 0.42 | 1523 ± 6.3 | 35.74 ± 0.17 | 19.93 ± 0.11
x2 = 0.2498 | 1036.3 ± 0.42 | 1531.6 ± 6.3 | 30.2 ± 0.14 | 16.8 ± 0.098
x2 = 0.3494 | 1037.8 ± 0.41 | 1551.3 ± 6.4 | 24.83 ± 0.12 | 13.77 ± 0.088
x2 = 0.4494 | 1039.24 ± 0.41 | 1581.6 ± 6.5 | 19.71 ± 0.11 | 10.9 ± 0.08
x2 = 0.5029 | 1039.87 ± 0.4 | 1602.9 ± 6.5 | 17.14 ± 0.096 | 9.465 ± 0.077
x2 = 0.5499 | 1040.27 ± 0.4 | 1622.2 ± 6.6 | 15 ± 0.09 | 8.274 ± 0.075
x2 = 0.5597 | 1040.33 ± 0.4 | 1626.9 ± 6.6 | 14.56 ± 0.089 | 8.034 ± 0.074
x2 = 0.6501 | 1040.2 ± 0.39 | 1660.5 ± 6.7 | 10.84 ± 0.079 | 5.979 ± 0.07
x2 = 0.7499 | 1037.73 ± 0.38 | 1687.6 ± 6.8 | 7.287 ± 0.072 | 4.049 ± 0.066
x2 = 0.85 | 1030.31 ± 0.35 | 1676.8 ± 6.7 | 4.325 ± 0.067 | 2.473 ± 0.064
x2 = 0.9003 | 1023.26 ± 0.33 | 1642.7 ± 6.6 | 3.049 ± 0.065 | 1.81 ± 0.064
x2 = 0.9115 | 1021.26 ± 0.32 | 1632.5 ± 6.6 | 2.782 ± 0.065 | 1.673 ± 0.064
x2 = 0.9154 | 1020.51 ± 0.32 | 1627.5 ± 6.6 | 2.692 ± 0.065 | 1.626 ± 0.064
x2 = 0.927 | 1018.16 ± 0.31 | 1614.3 ± 6.6 | 2.425 ± 0.064 | 1.491 ± 0.064
x2 = 0.9367 | 1016.02 ± 0.31 | 1602.1 ± 6.5 | 2.208 ± 0.064 | 1.379 ± 0.063
x2 = 0.9504 | 1012.69 ± 0.3 | 1582.9 ± 6.5 | 1.907 ± 0.064 | –
x2 = 0.9551 | 1011.46 ± 0.29 | 1577.5 ± 6.4 | 1.806 ± 0.064 | –
x2 = 0.96 | 1010.13 ± 0.29 | 1570.2 ± 6.4 | 1.701 ± 0.064 | –
x2 = 0.9696 | 1007.36 ± 0.28 | 1554.1 ± 6.4 | 1.501 ± 0.064 | –
x2 = 0.9797 | 1004.21 ± 0.27 | 1535.9 ± 6.3 | 1.294 ± 0.063 | –
x2 = 0.9902 | 1000.65 ± 0.26 | 1518 ± 6.3 | 1.083 ± 0.063 | –
x2 = 0.9923 | 999.9 ± 0.26 | 1513.6 ± 6.2 | 1.041 ± 0.063 | –
x2 = 0.9948 | 998.99 ± 0.26 | 1508.4 ± 6.2 | 0.992 ± 0.063 | –
